For data set [1] the following is noted: aqueous solution in the narrow pH range of solubility.
Data set [2] is described as follows: Dissolution rate and vinyl sulfone generation during compounding at different temperatures. Type of data set: physicochemical. To be noted: for dissolution time: 50 mL batch size. An excerpt: The following items are some critical issues for the compounding of the drug product. • If the solution pH is higher than target pH, it can be titrated with 1.0 NHCL to the target pH. If the pH is too low, it will not be possible to back titrate with NaOH due to the sensibility of canfosfamide hydrochloride to alkaline environment. • Due to the acidity of the drug substance, the rate of dissolution of drug substance influences the pH of the compounding solution. A quick dissolution could reduce the pH faster and therefore reduce the time of exposure of the drug to high pH. […] The solution was then analyzed by HPLC.
An additional study of two liter batch size was conducted. Canfosfamide hydrochloride was dissolved into three batches of pH 6.5, 0.1 M citrate buffer and monitored at different temperatures; 5° C., 20° C. and 40° C. […] In the second batch at 20° C. (room temperature), the drug was totally dissolved after 20 minutes. […] The third batch consisted of adding drug at room temperature and allowing the temperature to increase to 40° C. over 90 minutes. […] These experiments support controlling the compounding procedure at room temperature until all drug is dissolved and filtered.

A short description of data set [3]: Stability in solution at 1 mg/mL, effect of pH (vinyl sulfone generation). It counts as physicochemical. The conditions noted are these: 1 mg/mL in 0.1 M citrate buffer. As to the method:
A stability study was performed by monitoring vinyl sulfone generation. Canfosfamide hydrochloride was dissolved at 1 mg/mL into 0.1 M citrated buffer from pH 4.5 to pH 6.5. The solutions were incubated at 25° C. for 24 hours. Vinyl sulfone generation was monitored.

Assay in data set [4]: not given
The source holds these as a separate data set.

Data set [5] in a line: physchem.
Data set [6] in a line: Vinyl sulfone degradation on titration with NaOH.
Data set [7] can be described thus: pH and osmolality of 50 mg/mL solution in citrate buffer.
Source text: The solubility of canfosfamide hydrochloride depends on the concentration and initial pH of buffer system.

Counter-ions that a name gives are not always drawn. Like-named read-outs stand apart in the source and are kept apart here.

In the case of `N[C@@H](CCC(=O)N[C@@H](CS(=O)(=O)CCOP(=O)(N(CCCl)CCCl)N(CCCl)CCCl)C(=O)N[C@@H](C(=O)O)c1ccccc1)C(=O)O` [Canfosfamide], in data set [1], the “time aqueous formulations are stable before decomposition products are observed” value is 6 to 12 h.
Broadly, the solubility is how much of the substance goes into solution per volume. A low value points to a poorly soluble substance. With `N[C@@H](CCC(=O)N[C@@H](CS(=O)(=O)CCOP(=O)(N(CCCl)CCCl)N(CCCl)CCCl)C(=O)N[C@@H](C(=O)O)c1ccccc1)C(=O)O` [canfosfamide hydrochloride], the dissolution time in data set [2] (5° C.) was 45 min; in data set [2] (room temperature), 25 min. The “vinyl sulfone generated at 5° C. versus room temperature” value in data set [2] (during dissolution, HPLC) was “not significantly different”. Further, in data set [2] (two liter batch, pH 6.5 0.1 M citrate buffer, 5° C., after 80 minutes), the dissolution observation result is “minor particles were observed”. Moreover, the “time to total dissolution” value in data set [2] (two liter batch, pH 6.5 0.1 M citrate buffer, 20° C. (room temperature)) was 20 min. Further, in data set [2] (two liter batch, temperature increased from room temperature to 40° C. over 90 minutes), the vinyl sulfone generated result is “higher than the two previous batches”. In addition, the “Percent vinyl sulfone at 25° C.” value came out at 0.1% in data set [3] (pH 4.5, 6 hrs); 0.4% in data set [3] (pH 4.5, 24 hrs); 0.2% in data set [3] (pH 5.0, 6 hrs); 1.1% in data set [3] (pH 5.0, 24 hrs); 0.6% in data set [3] (pH 5.5, 6 hrs); 2.9% in data set [3] (pH 5.5, 24 hrs). Also, the “Percent vinyl sulfone at 25° C.” value in data set [3] (pH 6.0, 6 hrs) is given as 1.7%; in data set [3] (pH 6.0, 24 hrs) it was 8.2%; in data set [3] (pH 6.5, 6 hrs), 6.6%; in data set [3] (pH 6.5, 24 hrs), 24.2%. Also, where the note is “0.1 M citrate buffer at pH 6.5”, the “amount dissolved by citrate buffer” value is “approximately 100 mg/mL”. Moreover, where the note is “aqueous”, the “pH at which soluble” value was “above 4.2”. In addition, for the setting “aqueous”, the “pH at which stability is limited” value was above 5.0. In addition, the “% Purity 25° C.” value in data set [4] (3 Month, bulk solution 50 mg/mL at pH 4.6, data is ± 2%) stood at 69%; in data set [4] (Day 0, bulk solution 50 mg/mL at pH 4.6, data is ± 2%) it was 92%; in data set [4] (Day 3, bulk solution 50 mg/mL at pH 4.6, data is ± 2%) it was 93%; in data set [4] (Day 7, bulk solution 50 mg/mL at pH 4.6, data is ± 2%), 89%; in data set [4] (Day 28, bulk solution 50 mg/mL at pH 4.6, data is ± 2%), 84%; in data set [4] (Day l, bulk solution 50 mg/mL at pH 4.6, data is ± 2%) it was 89%. Besides, the solubility was 174 mg/mL in data set [5] (citrate buffer, pH 5.5, aqueous buffer) and around 2 mg/mL in data set [5] (water). In addition, the “content of vinyl sulfone before titration” value in data set [6] (50 mg/mL in pH 4.3 citrate buffer) is reported as 0.64%. Also, the results for the “content of vinyl sulfone after titration” value in data set [6] (50 mg/mL in pH 4.3 citrate buffer titrated with 0.1 N NaOH to pH 4.5) and in data set [6] (50 mg/mL in pH 4.3 citrate buffer titrated with 1.0 N NaOH to pH 4.5) were 1.3% and 6.5%, respectively. In data set [7] (50 mg/mL dissolved in 0.1 M citrate buffer at pH 6.5), the pH of solution result was “about 4.6”. For the same compound, the osmolality result in data set [7] (50 mg/mL in 100 mM citrate buffer) is listed as “about 400 mM”.

(Values after US8716521B2 (priority 2008, dated 2014).)
